Read-outs that look alike come from different tables or passages of the source.
Assays:
[1] = female, human, in vivo
Procedure: (§1) Doxorubicin (60 mg/m^2) was administered as an IV infusion over 5–10 minutes followed by an infusion of cyclophosphamide 600 mg/m^2 over 30–60 minutes every two weeks for a total of four cycles (cumulative doxorubicin 240 mg/m^2). All subjects received aprepitant, dexamethasone and palonsetron prior to each infusion of doxorubicin. All subjects received pegfilgrastim subcutaneously 24–72 hours after doxorubicin and cyclophosphamide.
(§2) This was a randomized, cross-over, single-blinded drug-drug interaction study. All patients received one cycle of AC chemotherapy with enalapril and another cycle of AC with placebo (without enalapril). The two study cycles were consecutive. Patients were randomized to the enalapril intervention or placebo in cycle 1 with cross-over in the subsequent cycle. They began 5 mg of enalapril daily on day −6, and then increased to 10 mg daily on day −2, prior to doxorubicin administration on day 1.
(§3) Blood samples for pharmacokinetics (doxorubicin and doxorubicinol) were obtained in each subject twice (one cycle with enalapril and one with placebo). Samples were drawn at baseline (immediately prior to start of doxorubicin) and then at 0.5, 1, 2, 4, 24 and 48 hours after the end of infusion. Five milliliters of blood was collected at each sampling time and placed in an EDTA tube for doxorubicin and doxorubicinol analysis. Each sample of whole blood was immediately inverted 10 times, placed on wet ice, centrifuged at 3400 rpm for 10 minutes at 4 degrees C, plasma separated and frozen to −80 degrees C within 15 minutes of collection. Samples remained frozen at −80 degrees C until time of analysis. Samples were batched at the time of analysis.
(§4) Doxorubicin and doxorubicinol plasma concentration-time data were analyzed using noncompartmental methods (WinNonLin Professional 6.3). Area-under-the-curve (AUC) (0-∞) was estimated by the log/linear trapezoidal method as AUC (0-t*) + C(t*)/Ke where C(t*) was the last observed concentration and Ke is the terminal first order elimination rate constant. Ke was calculated as the slope of the linear portion of the log of plasma-concentration vs time curve using linear regression analysis. Cmax was at the highest observed concentration.
(§5) The chromatographic separation was performed with a Waters UPLC BEH C18, 2.1 × 50 mm, reversed phase column with a 1.7-micron particle size (Waters, Milford, MA). The mobile phase used for gradient elution consisted of (A) 5 mM ammonium acetate in water, pH 3.5 (B) methanol. […] The column temperature was maintained at 35°C. […] The collision energy was 14 eV, 12 eV and 25 eV, respectively. […] Cartridges were conditioned with 1 mL methanol followed by 1 mL DI water (18 Mohm.cm, type 1). The cartridges were loaded with the samples and centrifuged at 83 × g for 5 minutes and then washed with 1 mL distilled ionized water, centrifuged and transferred to a vacuum manifold for 5 minutes, and eluted with 1 mL methanol. The eluent was evaporated to dryness using a nitrogen evaporator (Zymark Turbo Vap LV, Hopkinton, MA) set at 37°C, and reconstituted in 100 μL of mobile phase (A:B, 45:55). Doxorubicin and doxorubicinol were obtained from Toronto Research Chemicals (Toronto, Ontario, CAN). Daunorubicin was obtained from Sigma-Aldrich (St. Louis, MO). The assays are linear in the range of 1 – 1,000 ng/mL. […] The lower limit of quantification for both analytes is 1 ng/mL.
(§6) The confidence interval is a measure of the precision of the exposure ratio estimate.

clinical = details: female, human, in vivo
Procedure: as §1, §2, §3, §4, §5, §6

[2] = Doxorubicin and doxorubicinol plasma pharmacokinetics with and without enalapril (randomized cross-over drug-drug interaction study); details: for AUC(0-∞) geometric mean ratio (90% CI) / Cmax geometric mean ratio (90% CI): with versus without enalapril; for Cmax: geometric mean ± standard error, 17 women
Procedure: as §1, §2, §3, §4, §5, §6

[3] = cited from earlier work; for Incidence of symptomatic heart failure: ref Singal and Iliskovic [1998], Yeh et al. [2004], Muggia and Speyer [1999]; for Incidence of asymptomatic declines in ejection fraction: up to, ref Lenihan and Cardinale [2012]
[4] = Safety / adverse events in the enalapril-doxorubicin interaction study; type: in vivo, women with breast cancer; details: enalapril 5 then 10 mg daily with doxorubicin and cyclophosphamide
From the text: The two study cycles were consecutive. […] There were no serious or grade 3 or 4 adverse events. The most commonly reported drug-related adverse event was dizziness with 33% experiencing grade 1 dizziness. No clinical cardiac events occurred.

[5] = set-up: method as in Cardinale et al. [2006]; details: 12 months after therapy; enalapril 20 mg daily; patients with troponin elevation; placebo 48.3%, p < 0.001; ref Cardinale et al. [2006]; cited from earlier work

Row | SMILES | AUC0-∞ [1] | AUC(0-inf) (clinical; AUC0-∞) | AUC(0-inf) (clinical; iv, 60 mg/m2, AUC(0-∞)) | 90% CI for Cmax geometric mean ratio ([2]; reanalysis removing the outlier Cmax (subject with body mass index 53 kg/m^2)) | AUC(0-∞) geometric mean ratio (90% CI) [2] | Cmax geometric mean ratio (90% CI) [2] | Incidence of symptomatic heart failure ([3]; cumulative doses of 400–500 mg/m^2) | Incidence of symptomatic heart failure ([3]; cumulative doses ≥ 600 mg/m^2) | Incidence of asymptomatic declines in ejection fraction ([3]; higher doses) | Incidence of asymptomatic declines in ejection fraction ([3]; moderate doses (240–400 mg/m^2)) | AUC0-∞ ([2]; with enalapril 10 mg daily, doxorubicin 60 mg/m^2 IV, plasma, Table 3 geometric mean ± standard error, text mean (standard error)) | Cmax ([2]; with enalapril 10 mg daily, doxorubicin 60 mg/m^2 IV, plasma) | AUC0-∞ ([2]; with enalapril exposure, abstract, Mean (SD)) | AUC0-∞ ([2]; without enalapril (placebo cycle), doxorubicin 60 mg/m^2 IV, plasma, Table 3 geometric mean ± standard error, text mean (standard error)) | AUC0-∞ ([2]; without enalapril (placebo cycle), doxorubicin 60 mg/m^2 IV, plasma, Table 3 geometric mean ± standard error, text mean (standard error), listed as doxorubicinol) | Cmax ([2]; without enalapril (placebo cycle), doxorubicin 60 mg/m^2 IV, plasma) | AUC0-∞ ([2]; without enalapril, abstract, Mean (SD)) | Subjects with grade 1 dizziness [4] | Left ventricular ejection fraction [5]
1 | COc1cccc2c1C(=O)c1c(O)c3c(c(O)c1C2=O)C[C@@](O)(C(=O)CO)C[C@@H]3O[C@H]1C[C@H](N)[C@H](O)[C@H](C)O1 [Doxorubicin] | 1167.73 (45.26) hr*ng/ml | 1190 ng·h/mL | 1640 ng·h/mL | 0.94-1.21 | 1.02(0.96-1.08) | 1.19(0.94-1.51) | 3-4% | more than 30% | 30-35% | 20-25% |  |  |  |  |  |  |  |  | 
2 | COc1cccc2c1C(=O)c1c(O)c3c(c(O)c1C2=O)C[C@@](O)([C@@H](O)CO)C[C@@H]3O[C@H]1C[C@H](N)[C@H](O)[C@H](C)O1 [Doxorubicinol, doxorubicinol] |  |  |  |  | 0.96(0.88-1.05) | 0.99(0.91-1.08) |  |  |  |  | 1040 ± 80.6 ng·h/mL | 27.81 ± 3.59 ng/mL | 1040 (80.6) hr*ng/ml | 1056.32 ± 92.03 ng·h/mL | 1056.3 (92.0) ng-hr/mL | 29.66 ± 4.68 ng/mL | 1056.32 (92.03) hr*ng/ml |  | 
3 | CCOC(=O)[C@H](CCc1ccccc1)N[C@@H](C)C(=O)N1CCC[C@H]1C(=O)O [Enalapril, enalapril] |  |  |  |  |  |  |  |  |  |  |  |  |  |  |  |  |  | 33% | 62.8%

— publication PMC4309801, “Angiotensin Converting Enzyme Inhibitors (ACEI) and doxorubicin pharmacokinetics in women receiving adjuvant breast cancer treatment” (SpringerPlus, 2015)
